# Assay results as given in patent US6613317B1, “Volatile attractants for diabrotica species” (priority 1988, dated 2003).
# Marks after values point to notes of the source that are not given here.
# Columns and labels:
# [1] = test system: northern corn rootworm (NCR) adults; assay: Sticky trap attraction in corn, estragole analogues (Example 3); format: in vivo, Diabrotica barberi; conditions: 100 mg per trap, n = 4
# How it was run: (§1)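 Cotton wicks dosed with 100 mg or 100 μL attractant per trap on TangleTrap-coated cartons, four replicates 10 m apart on 1 m posts at field edges of hybrid or sweet corn. Mean beetles caught after ~24 h; log-transformed ANOVA with Duncan's test, P=0.05.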
# D. cristata = assay: Sticky trap attraction in prairie habitat, Trelease Woods (Example 2); format: in vivo, Diabrotica cristata; conditions: 100 mg per trap, n = 4
# How it was run: (§2)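 Lure-dosed cotton wicks (solids in acetone; untreated controls) on TangleTrap-coated cartons atop 1 m posts, four replicates 10 m apart in relict prairie, mid-August over two years. Read-out: mean beetles caught after 24-h; log-transformed ANOVA with Duncan's multiple range test.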
# [2] = test system: western corn rootworm (WCR) adults; assay: Sticky trap attraction in corn, estragole analogues (Example 3); format: in vivo, Diabrotica virgifera virgifera; conditions: 100 mg per trap, n = 4
# How it was run: as §1
# D. u. howardi [3] = assay: Sticky trap attraction in prairie habitat, Trelease Woods (Example 2); format: in vivo, Diabrotica undecimpunctata howardi; conditions: 100 mg per trap, n = 4
# How it was run: as §2
# D. v. virgifera [4] = assay: Sticky trap attraction along hybrid corn, Pomology South Farms (Example 2); format: in vivo, Diabrotica virgifera virgifera; conditions: 100 mg per trap, n = 4
# Procedure: (§3) The candidate lures in all experiments were purchased commercially and exceeded 98% purity. The test chemicals were applied by capillary micropipettes to cotton dental wicks which were attached to the tops of 1.0 liter cylindrical paper cartons covered with TangleTrap™ (Tanglefoot Co., Grand Rapids, Mich.). The sticky trap techniques used were as described in Example 1. Cinnamyl alcohol and para-methoxycinnamaldehyde, which are solids, were dissolved in glass-distilled acetone prior to dosing the cotton wicks. All treatments were applied at a dosage of 100 mg per trap. 1,2,4-trimethoxybenzene, indole, and trans-cinnamaldehyde were mixed in a ratio of 1:1:1, by weight, immediately prior to dosing the cotton wicks. Control traps had untreated cotton wicks. Four replicates of treated and untreated traps were randomly positioned 10 meters apart on top of 1 m high posts along the border of a eight foot wide strip cut through the middle of a 4.05 ha relict prairie at Trelease Woods (ca. two miles northeast of Urbana, Ill.). The field consisted primarily of Andropogon gerardii Vitman (big bluestem) and a variety of composites. The tests were conducted in mid-August of two years and were timed to coincide with the presence of D. cristata and D. barberi adults in the flower heads of Canada thistle (Carduus arvensis Robson). In the second year, several new attractants of D. v. virgifera and D. barberi were tested in Trelease Woods and along the edge of a 0.8 ha field of hybrid corn located at the Pomology South Farms, Urbana, Ill. Attraction of Diabrotica species to the various lures was measured by the mean number of beetles caught after 24-h. On one date in late August of the first year, D. cristata and D. barberi were removed from the traps and sexed in the laboratory. The significance of treatments in all tests was determined by an analysis of variance and the individual means were separated by Duncan's multiple range test (Statistical Package for Social Science, Nie, et al., SPSS: statistical package for the social sciences, 2nd ed. McGraw-Hill, New York (1975). Data were logarithmically transformed for statistical analysis and the means and standard deviations are presented for the untransformed data.
# D. v. virgifera [5] = assay: Sticky trap attraction in prairie habitat, Trelease Woods (Example 2); format: in vivo, Diabrotica virgifera virgifera; conditions: 100 mg per trap, n = 4
# How it was run: as §2
# D. barberi [6] = assay: as above; format: in vivo, Diabrotica barberi; conditions: for Mean number of D. barberi per day (±standard deviation) / Mean number of D. barberi per sticky trap per day (±standard deviation): 100 mg per trap, n = 4
# How it was run: as §2
# D. u. howardi [7] = assay: Sticky trap attraction along hybrid corn, Pomology South Farms (Example 2); format: in vivo, Diabrotica undecimpunctata howardi; conditions: 100 mg per trap, n = 4
# Procedure: as §3
# D. barberi [8] = assay: as above; format: in vivo, Diabrotica barberi; conditions: 100 mg per trap, n = 4
# Procedure: as §3
SMILES,Mean number of NCR (±standard deviation) per sticky trap after 24 hours ([1]; August 7 (Table 11)),Mean number of NCR (±standard deviation) per sticky trap after 24 hours ([1]; August 18 (Table 11)),"Mean number of D. cristata per day (±standard deviation) (D. cristata; August 11, 1987)","Mean number of D. cristata per day (±standard deviation) (D. cristata; August 14, 1987)",Mean number of WCR (±standard deviation) per sticky trap after 24 hours ([2]; August 7 (Table 11)),Mean number of WCR (±standard deviation) per sticky trap after 24 hours ([2]; August 18 (Table 11)),"Mean number of D. u. howardi per day (±standard deviation) (D. u. howardi [3]; August 11, 1987)","Mean number of D. u. howardi per day (±standard deviation) (D. u. howardi [3]; August 14, 1987)",Mean number of D. v. virgifera per stick trap per day (±standard deviation) in corn (D. v. virgifera [4]; August 7),Mean number of D. v. virgifera per stick trap per day (±standard deviation) in corn (D. v. virgifera [4]; August 18),"Mean number of D. v. virgifera per day (±standard deviation) (D. v. virgifera [5]; August 11, 1987)","Mean number of D. v. virgifera per day (±standard deviation) (D. v. virgifera [5]; August 14, 1987)","Mean number of D. barberi per day (±standard deviation) (D. barberi [6]; August 11, 1987)","Mean number of D. barberi per day (±standard deviation) (D. barberi [6]; August 14, 1987)","activity for D. barberi relative to estragole (D. barberi [6]; prairie, Table 5) [times]",Mean number of D. u. howardi per stick trap per day (±standard deviation) in corn (D. u. howardi [7]; August 7),Mean number of D. u. howardi per stick trap per day (±standard deviation) in corn (D. u. howardi [7]; August 18),Mean number of D. barberi per stick trap per day (±standard deviation) in corn (D. barberi [8]; August 7),Mean number of D. barberi per stick trap per day (±standard deviation) in corn (D. barberi [8]; August 18),other results
"C=CCc1ccc(O)c(OC)c1 [XXIV, eugenol]",5.7 ± 2.2^b per sticky trap,16.5 ± 5.7^b per sticky trap,39.5 ± 9.4^c per day,20.0 ± 8.4^cd per day,10.0 ± 2.9^a per sticky trap,2.7 ± 2.9^a per sticky trap,0.0^a per day,0.0^a per day,10.0 ± 2.9^a per stick trap per day,2.8 ± 2.9^a per stick trap per day,0.3 ± 0.5^a per day,0.0^a per day,9.5 ± 8.3^bc per day,8.3 ± 3.3^c per day,2,6.3 ± 1.0^a per stick trap per day,0.0^a per stick trap per day,5.8 ± 2.2^b per stick trap per day,16.3 ± 5.7^b per stick trap per day,"Mean number of D. cristata per sticky trap per day (±standard deviation) (D. cristata; August 18, first year): 11.5 ± 8.6^b per sticky trap per day; Mean number of D. cristata per sticky trap per day (±standard deviation) (D. cristata; August 20, first year): 15.5 ± 7.9^c per sticky trap per day; Mean number of D. cristata per sticky trap per day (±standard deviation) (D. cristata; August 27, first year): 3.5 ± 3.3^b per sticky trap per day; Mean number of D. u. howardi per sticky trap per day (±standard deviation) (D. u. howardi [3]; August 18, first year): 0.3 ± 0.5^a per sticky trap per day; Mean number of D. u. howardi per sticky trap per day (±standard deviation) (D. u. howardi [3]; August 20, first year): 0.8 ± 0.5^a per sticky trap per day; Mean number of D. u. howardi per sticky trap per day (±standard deviation) (D. u. howardi [3]; August 27, first year): 0.3 ± 0.5^a per sticky trap per day; Mean number of D. v. virgifera per sticky trap per day (±standard deviation) (D. v. virgifera [5]; August 18, first year): 0.3 ± 0.5^a per sticky trap per day; Mean number of D. v. virgifera per sticky trap per day (±standard deviation) (D. v. virgifera [5]; August 20, first year): 0 per sticky trap per day; Mean number of D. v. virgifera per sticky trap per day (±standard deviation) (D. v. virgifera [5]; August 27, first year): 0 per sticky trap per day; Mean number of D. barberi per sticky trap per day (±standard deviation) (D. barberi [6]; August 18, first year): 21.8 ± 7.3^b per sticky trap per day; Mean number of D. barberi per sticky trap per day (±standard deviation) (D. barberi [6]; August 20, first year): 22.5 ± 13.2^c per sticky trap per day; Mean number of D. barberi per sticky trap per day (±standard deviation) (D. barberi [6]; August 27, first year): 10.5 ± 4.8^b per sticky trap per day"
"OCC=Cc1ccccc1 [XVIII, cinnamyl alcohol]",8.5 ± 6.1^b per sticky trap,23.2 ± 5.9^c per sticky trap,28.3 ± 5.3^c per day,20.5 ± 1.3^d per day,13.8 ± 10.2^a per sticky trap,3.3 ± 1.7^a per sticky trap,0.3 ± 0.5^a per day,2.8 ± 1.7^b per day,13.8 ± 10.2^a per stick trap per day,3.3 ± 2.7^a per stick trap per day,0.0 per day,0.0^a per day,16.5 ± 5.1^c per day,13.0 ± 12.8^bc per day,5,24.5 ± 13.6^b per stick trap per day,1.8 ± 1.3^b per stick trap per day,8.5 ± 6.1^b per stick trap per day,23.3 ± 5.9^c per stick trap per day,"Mean number of NCR per sticky trap after 24 hours ([1]; August 5 (Table 10)): 8.7 ± 4.6^c per sticky trap; Mean number of WCR per sticky trap after 24 hours ([2]; August 5 (Table 10)): 16.5 ± 1.9^ab per sticky trap; activity for D. barberi relative to the TIC mixture (D. barberi [6]; prairie, Table 5): ca. 3.5 times"
